These results are taken from US20250262298A1, “STING MODULATOR COMPOUNDS WITH SULFAMATE LINKAGES, AND METHODS OF MAKING AND USING” (TAKEDA PHARMACEUTICAL COMPANY LIMITED, priority 2018, published 2025).

The subject of test [1] is THP1-Dual cells (Lucia luciferase under ISG54 promoter). Briefly: THP-1 Dual Lucia reporter gene assay. The test is classed as cell-based, human. Conditions: Homo sapiens, THP1-Dual, 20 h, luminescence signal induction, 20 hours at 37° C. The procedure:
THP1-Dual™ cells (InvivoGen #thpd-nfis) were derived from the human THP-1 monocyte cell line by stable integration of the Lucia luciferase gene, a secreted luciferase reporter gene, under the control of an ISG54 (interferon-stimulated gene) minimal promoter in conjunction with five interferon (IFN)-stimulated response elements. On the day of experiment, the cells were plated to a black, 384-well plate (Corning 356697) at 7500 cells/25 μl per well density in growth media (RPMI 1640, 2 mM L-glutamine, 25 mM HEPES, 10% heat-inactivated fetal bovine serum, 100 μg/mL Normocin™, 50 U/mL-50 μg/mL Pen-Strep, 10 μg/mL of blasticidin, and 100 μg/mL of Zeocin). The cell plates were dosed with 62.5 nL of the testing compounds, and then incubated at 37° C. for 20 hours. At the end of the incubation, 15 μL/well of the QUANTI-Luc™ (InvivoGen #rep-qlc1) were added, and luminescence was measured immediately using the LeadSeeker.
For the assay method described above, test compound percent luminescence signal induction, at various concentrations, was calculated relative to untreated and DMSO only treated samples. Compound concentration versus percent signal induction curves were fitted to generate EC50 values. One skilled in the art will appreciate that the values generated as EC50 values are subject to experimental variation.
(In general: A reporter such as luciferase makes a cellular process visible.)

Another test deals with Human STING (Homo sapiens (Human), UniProt Q86WV6, H232R). Briefly: Human STING TR-FRET assay. The test is classed as binding. Conditions: human STING residues 140-379 (H232R), 100 nM; fluorescein labeled ligand 100 nM; 60 minutes at rt. The procedure: Human STING (accession number GB:BC047779) DNA encoding residues 140-379 (H232R) was cloned into pET28 as N-terminal HIS and C-terminal Avi tagged fusion protein, and a rTEV cleavage site between HIS tag and STING. The sequence was verified before recombinant protein expression using E. coli expression system.
Human STING, sequence (Q86WV6 140-379 H232R): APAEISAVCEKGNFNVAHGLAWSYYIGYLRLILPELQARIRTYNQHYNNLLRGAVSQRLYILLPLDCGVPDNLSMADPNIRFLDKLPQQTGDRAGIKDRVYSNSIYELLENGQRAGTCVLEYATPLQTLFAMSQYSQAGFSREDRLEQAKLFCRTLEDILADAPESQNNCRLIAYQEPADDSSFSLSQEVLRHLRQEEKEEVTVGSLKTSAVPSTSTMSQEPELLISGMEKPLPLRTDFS
For expression, STING expression vector was transformed into BL21(DE3) cells. The expression was induced by adding IPTG and expressing in 16° C. for 20 hours.
For purification, STING was purified by Nickel affinity resin (Thermo Scientific #25215), followed by TEV enzyme cleavage and Superdex 200 column (GE Healthcare #28-9893-35) purification. For site directed in vitro biotinylation, purified Avi-tagged STING protein was incubated with Biotin (SUPELCO #47868), ATP (SIGMA #A-7699) and BirA enzyme, followed by further purification through a Superdex 200 column (GE Healthcare #28-9893-35). Biotinylation was confirmed by Mass Spectrometry analysis.
40 nL of test compounds in DMSO were added to wells in a white, 384 well microtitre plate (Greiner 784075). 2 uL STING assay buffer (PBS and 0.01% BSA) containing fluorescein labeled ligand (c[G(2′,5′)p-2′-Fluo-AHC-A(3′,5′)p]-Biolog C 195, 100 nM final) and Tb labeled Streptavidin (Streptavidin-Tb cryptate-CisBio 610SATLB) were added. Then 2 uL STING assay buffer containing STING protein (100 nM final) was added and the mixture was incubated at rt for 60 minutes. The plates were then read on a BMG PheraStar Plus reader (LanthaScreen module).
For the assay method described above, test compound percent inhibition, at various concentrations, was calculated relative to untreated and DMSO only treated samples. Compound concentration versus percent inhibition curves were fitted to generate IC50 values. One skilled in the art will appreciate that the values generated either as percentage inhibition at a single concentration or IC50 values are subject to experimental variation.

The structures appear in SMILES notation. Bounds are passed on as bounds.

Take `Nc1nc2c(ncn2[C@@H]2O[C@@H]3CNS(=O)(=O)O[C@H]4C[C@H](n5cnc6c(N)ncnc65)O[C@@H]4COP(=O)(O)O[C@@H]2C3)c(=O)[nH]1` [Compound I-9, 2-amino-9-[(5S,7R,8R,12aR,14R,15aS)-14-(6-amino-9H-purin-9-yl)-10-hydroxy-2,2,10-trioxidooctahydro-3H,12H-5,8-methanofuro[3,2-l][1,3,6,11,10,9,2]tetraoxathiazaphosphacyclotetradecin-7-yl]-1,9-dihydro-6H-purin-6-one]: the EC50 in test [1] is > 25 µM. The molecule also registered a half-inhibitory concentration (IC50) against Human STING of 10 to 100 µM.
The matching figures for `Nc1nc2c(ncn2[C@@H]2O[C@@H]3COP(=O)(O)O[C@H]4[C@@H](F)[C@H](n5cnc6c(N)ncnc65)O[C@@H]4CNS(=O)(=O)O[C@@H]2C3)c(=O)[nH]1` [Compound I-18, 2-amino-9-[(5S,7R,8R,12aR,14R,15R,15aR)-14-(6-amino-9H-purin-9-yl)-15-fluoro-2-hydroxy-2,10,10-trioxidodecahydro-5,8-methanofuro[2,3-m][1,3,6,9,10,11,2]tetraoxathiazaphosphacyclotetradecin-7-yl]-1,9-dihydro-6H-purin-6-one]: 1 to 10 µM and < 1 µM.

What is called EC50 is the concentration at which the effect is half-maximal. A lower EC50 goes with higher potency in that assay. For orientation: IC50 means the concentration that gives 50% inhibition.
